According to ChEMBL document CHEMBL1135098, “Design, synthesis and evaluation of substituted phenylpropanoic acid derivatives as peroxisome proliferator-activated receptor (PPAR) activators: novel human PPARalpha-selective activators” (Bioorg Med Chem Lett, 2002):

Tests used:
[1] = target: T1, Peroxisome proliferator-activated receptor gamma (Homo sapiens, UniProt P37231)
T1 sequence (P37231 whole entry): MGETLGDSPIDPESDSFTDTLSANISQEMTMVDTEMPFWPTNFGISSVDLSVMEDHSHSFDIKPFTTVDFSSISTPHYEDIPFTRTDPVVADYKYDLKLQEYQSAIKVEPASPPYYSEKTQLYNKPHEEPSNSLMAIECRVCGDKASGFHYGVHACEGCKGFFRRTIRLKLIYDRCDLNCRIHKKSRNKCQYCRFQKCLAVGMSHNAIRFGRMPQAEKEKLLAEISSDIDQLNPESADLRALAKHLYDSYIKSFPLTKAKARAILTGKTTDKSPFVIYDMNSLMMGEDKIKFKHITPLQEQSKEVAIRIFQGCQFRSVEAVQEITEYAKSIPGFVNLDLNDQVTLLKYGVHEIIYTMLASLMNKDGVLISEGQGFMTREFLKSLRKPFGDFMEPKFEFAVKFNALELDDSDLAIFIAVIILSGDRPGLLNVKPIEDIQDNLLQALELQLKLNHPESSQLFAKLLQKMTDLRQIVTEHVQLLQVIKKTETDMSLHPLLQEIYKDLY
Description: Concentration of compound that affords half-maximum transactivation of human Peroxisome proliferator activated receptor gamma in CHO-K1 cells was determined in vitro

[2] = target: T2, Peroxisome proliferator-activated receptor alpha (Homo sapiens, UniProt Q07869); assay: Concentration of compound that affords half-maximum transactivation of human Peroxisome proliferator activated receptor alpha in CHO-K1 cells was determined in vitro;ia means inactive at 10 uM; format: cell-based
T2 sequence (Q07869 whole entry): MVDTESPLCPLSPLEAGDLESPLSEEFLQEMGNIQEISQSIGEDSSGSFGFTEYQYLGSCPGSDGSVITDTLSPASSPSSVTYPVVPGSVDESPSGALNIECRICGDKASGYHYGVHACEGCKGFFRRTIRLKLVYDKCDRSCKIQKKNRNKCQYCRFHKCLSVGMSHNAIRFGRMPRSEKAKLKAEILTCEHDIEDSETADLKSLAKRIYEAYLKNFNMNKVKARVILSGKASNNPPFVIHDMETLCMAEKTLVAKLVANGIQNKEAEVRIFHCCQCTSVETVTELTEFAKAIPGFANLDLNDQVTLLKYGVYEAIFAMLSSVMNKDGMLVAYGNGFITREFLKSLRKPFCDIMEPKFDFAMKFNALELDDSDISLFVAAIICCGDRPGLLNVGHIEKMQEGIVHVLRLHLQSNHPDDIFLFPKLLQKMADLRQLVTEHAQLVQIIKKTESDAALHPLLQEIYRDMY

[3] = target: T1, Peroxisome proliferator-activated receptor gamma; assay: […] of human Peroxisome proliferator activated receptor gamma in CHO-K1 cells;ia means inactive at 10 uM; format: cell-based
[4] = target: T2, Peroxisome proliferator-activated receptor alpha; assay: Transactivation of human Peroxisome proliferator activated receptor alpha expressed in CHO-K1 cells; format: cell-based

For CC(C)(Oc1ccc(CCNC(=O)c2ccc(Cl)cc2)cc1)C(=O)O [BEZAFIBRATE], the EC50 [1] was > 137 µM.
For COc1ccc(C(=O)O)cc1C(=O)NCc1ccc(C(F)(F)F)cc1, the EC50 [2] was “Not Active” and the EC50 [3] was “Not Active”.
With COc1ccc(CC(C)(C)C(=O)O)cc1C(=O)NCc1ccc(C(F)(F)F)cc1 the EC50 [3] was “Not Active”.
For COc1ccc(CC(C(=O)O)c2ccccc2)cc1C(=O)NCc1ccc(C(F)(F)F)cc1 (stereo not drawn), the EC50 [2] was “Not Active” and the EC50 [3] was “Not Active”.
CCCC(Cc1ccc(OC)c(C(=O)NCc2ccc(C(F)(F)F)cc2)c1)C(=O)O (stereo not drawn) was tested, and the EC50 [3] was “Not Active”.
In the case of COc1ccc(CC(=O)O)cc1C(=O)NCc1ccc(C(F)(F)F)cc1, the EC50 [2] is reported as “Not Active” and the EC50 [3] is reported as “Not Active”.
Molecule COc1ccc(CCCC(=O)O)cc1C(=O)NCc1ccc(C(F)(F)F)cc1 has an EC50 [1] of 3 µM and an EC50 [4] of 2.2 µM.
In the case of COc1ccc(CC(OC)C(=O)O)cc1C(=O)NCc1ccc(C(F)(F)F)cc1 (stereo not drawn), the EC50 [3] is reported as “Not Active”.
For COc1ccc(CCC(=O)O)cc1C(=O)NCc1ccc(C(F)(F)F)cc1, the EC50 [3] was “Not Active”.
For COc1ccc(CC(C)C(=O)O)cc1C(=O)NCc1ccc(C(F)(F)F)cc1 (stereo not drawn), the EC50 [3] was “Not Active”.
In the case of COc1ccc(CC(C(=O)O)C(C)C)cc1C(=O)NCc1ccc(C(F)(F)F)cc1 (stereo not drawn), the EC50 [3] is reported as “Not Active”.
COc1ccc(CC(Oc2ccccc2)C(=O)O)cc1C(=O)NCc1ccc(C(F)(F)F)cc1 (stereo not drawn) was tested, and the EC50 [2] was “Not Active” and the EC50 [3] was “Not Active”.
For CCC(CC)(Cc1ccc(OC)c(C(=O)NCc2ccc(C(F)(F)F)cc2)c1)C(=O)O, the EC50 [3] was “Not Active”.
